{"source": "paper PMC5773487", "about": "“Harnessing insulin- and leptin-induced oxidation of PTP1B for therapeutic development” (Nature Communications, 2018)", "key": {"[1]": {"system": "PKC", "conditions": "cited from earlier work"}, "[2]": {"target": "T1, reduced PTP1B (Homo sapiens, UniProt P18031)", "T1 construct": "Purified PTP1B (1–321) (100 nM) was mixed with increasing concentrations of H2O2; 6xHis (C); made in house; host or cells: E. coli BL21 (DE3)-RIL", "T1 sequence (P18031 1-321)": "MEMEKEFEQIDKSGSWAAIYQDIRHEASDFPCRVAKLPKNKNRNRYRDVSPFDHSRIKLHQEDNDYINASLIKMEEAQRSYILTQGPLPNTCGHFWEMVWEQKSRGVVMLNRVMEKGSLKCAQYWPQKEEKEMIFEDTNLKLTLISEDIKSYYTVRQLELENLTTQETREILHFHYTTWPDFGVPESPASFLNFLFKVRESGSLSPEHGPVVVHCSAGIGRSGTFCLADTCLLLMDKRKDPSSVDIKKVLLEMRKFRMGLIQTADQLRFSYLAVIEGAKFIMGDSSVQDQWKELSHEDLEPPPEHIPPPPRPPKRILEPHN", "assay": "phosphatase activity of reduced PTP1B, DiFMUP substrate", "assay_type": "biochemical", "method": "Fig. 4 Identification and characterization of small molecules that mimic the effect of scFv45. a Reversibly oxidized PTP1B (PTP1B-OX) was generated by incubation with H2O2 in vitro, desalted, then assayed (20 nM) in the presence and absence of individual members of the LOPAC library. In the right panel, each dot represents an activity measurement. […] Data are representative of at least two independent experiments (n = 2). b Increasing concentration of sanguinarine was tested against reduced (circle) and oxidized (square) forms of PTP1B, using DiFMUP as substrate. c Increasing concentration of levamisole was tested against reduced (circle) and oxidized (square) PTP1B, using DiFMUP as substrate. d PTP1B-OX (200 nM) was incubated with sanguinarine (25 µM) for 5 min and the complex was diluted 100-fold and the activity was monitored for 120 min continuously. e PTP1B-OX (200 nM) was incubated with levamisole (40 µM) for 5 min and the complex was diluted 100-fold and the activity was monitored for 120 min continuously. f Increasing concentration of chelerythrine, an analog of sanguinarine, was tested against reduced (circle) and oxidized (square) forms of PTP1B, using DiFMUP as substrate. […] Individual data points represent the mean obtained from three separate experiments (n = 3; b–g)\n(§1) Purified PTP1B (1–321) (100 nM) was mixed with increasing concentrations of H2O2 (0.05–100 mM) in phosphatase assay buffer (50 mM HEPES, pH 7.0, 100 mM NaCl, 0.1% BSA) at room temperature for 5 min. From this reaction mixture PTP1B (10 nM) was used to monitor phosphatase activity using DiFMUP as the substrate, with or without 5 mM TCEP. Activity of each sample was compared to that of the untreated PTP1B in the presence of 5 mM TCEP."}, "[3]": {"target": "T2, PTP1B-OX (Homo sapiens, UniProt P18031)", "T2 construct": "Purified PTP1B (1–321) (100 nM) was mixed with increasing concentrations of H2O2; 6xHis (C); made in house; host or cells: E. coli BL21 (DE3)-RIL", "T2 sequence (P18031 1-321)": "T1 sequence (P18031 1-321)", "assay": "reduction and reactivation of reversibly oxidized PTP1B by TCEP, DiFMUP substrate", "assay_type": "biochemical", "conditions": "for restoration of PTP1B-OX activity by TCEP in LOPAC primary screen: compound 10 μM; for IC50: wild-type PTP1B-OX, reactivation by TCEP, DiFMUP substrate, read-out: IC50 against PTP1B-OX", "method": "Therefore, our approach has been to adapt this assay, which we used to screen for conformation-sensor scFvs[17], now to screen for small molecules that act through a similar mechanism. Our primary screening assay tested the ability of small molecule inhibitors to antagonize the reduction and reactivation of the oxidized conformation of PTP1B, similar to that of scFv45 (Fig. 4a).\nas §1\nTo screen the LOPAC library against PTP1B-OX, 0.5 μl of 1 mM compound in 100% DMSO was added to 384-well plates, resulting in a final compound concentration of 10 μM for the primary screen. Recombinant PTP1B (100 nM) was reversibly oxidized and inactivated with H2O2 (4 mM). The phosphatase activity was restored by a quick buffer exchange and addition of reducing agent (TCEP). PTP1B-OX was incubated with LOPAC compounds (10 μM) in the assay buffer (50 mM HEPES pH 7.0, 100 mM NaCl, 0.005% Tween, 2 mM EDTA) and the effect of individual compound on stabilizing the reversibly oxidized conformation was assessed by the phosphatase assay under reducing conditions using DiFMUP as substrate. scFv45 was used as positive control."}, "[4]": {"target": "T2, PTP1B-OX", "assay": "reduction and reactivation of reversibly oxidized PTP1B by TCEP, DiFMUP substrate", "assay_type": "biochemical", "conditions": "complex diluted 100-fold, activity monitored 120 min"}}, "data": [{"smiles": "C[n+]1cc2c3c(ccc2c2ccc4cc5c(cc4c21)OCO5)OCO3", "note": "[sanguinarine]", "values": [{"measurement": "inhibition of PKC", "setting": "[1]", "value": "not an inhibitor"}, {"measurement": "inhibition of the reduced form of PTP1B", "setting": "[2]", "value": "no effect"}, {"measurement": "restoration of PTP1B-OX activity by TCEP in LOPAC primary screen", "setting": "[3]", "value": "only able to restore enzymatic activity partially"}, {"measurement": "IC50", "setting": "[3]", "value": 25, "unit": "µM"}, {"measurement": "reversibility of PTP1B-OX inhibition", "setting": "[4]", "value": "reversible"}]}, {"smiles": "c1ccc([C@H]2CN3CCSC3=N2)cc1", "note": "[levamisole]", "values": [{"measurement": "inhibition of the reduced form of PTP1B", "setting": "[2]", "value": "no effect"}, {"measurement": "restoration of PTP1B-OX activity by TCEP in LOPAC primary screen", "setting": "[3]", "value": "only able to restore enzymatic activity partially"}, {"measurement": "IC50", "setting": "[3]", "value": 36, "unit": "µM"}, {"measurement": "reversibility of PTP1B-OX inhibition", "setting": "[4]", "value": "reversible"}]}]}
